pIC50: −log10 of the molar value. Where two headings read alike, the source gives them in different places.
What was measured:
[1] = target: T1, AthDHS1 (Arabidopsis thaliana, UniProt P29976); experiment: DHS enzymatic activity assay with recombinant AthDHS1; format: biochemical; settings: 1 mM effector
T1 construct: AthDHS1; residues 49–525; hexa-histidine; made in house; host or cells: E. coli Rosetta2 (DE3), pET28a
Method: (§1) Unless otherwise noted, DHS enzymatic activity was monitored as previously described ([Liu et al., 2008]), with several optimizations for high-throughput assays with eight-strip PCR tubes and a thermal cycler. The enzyme solution (7.7 µL) containing 50 mM HEPES (pH 7.4) was preincubated with an effector molecule(s) at room temperature for 10 min. For assays using recombinant protein and enzyme fraction isolated from plant leaves, 0.01–0.05 µg and approximately 50 µg of proteins were used, respectively. After adding 0.5 µL of 0.1 M DTT, the samples were further incubated at room temperature for 15 min. […] The enzyme reaction was started by adding 6.8 µL of the substrate solution, then incubated at 37°C for 20 min, and terminated by adding 30 µL of 0.6 M trichloroacetic acid. After brief centrifugation, 5 µL of 200 mM NaIO4 (sodium meta-periodate) in 9 N H3PO4 was added to oxidize the enzymatic product and incubate at 25°C for 20 min. To stop the oxidation reaction, 20 µL of 0.75 M NaAsO2 (sodium arsenite), which was dissolved in 0.5 M Na2SO4 and 0.05 M H2SO4, was immediately mixed. After 5 min of incubation at room temperature, one-third of the sample solution was transferred to a new tube to be mixed with 50 µL of 40 mM thiobarbituric acid and incubated at 99°C for 15 min in a thermal cycler. Developed pink chromophore was extracted by putting the final solutions with 600 µL of cyclohexanone in eight-strip solvent-resistant plastic tubes, mixing vigorously and centrifuging them at 4,500 × g for 3 min to separate water- and cyclohexanone-based layers. The absorbance of the pink supernatant was read at 549 nm with the microplate reader (Infinite 200 PRO, TECAN, Männedorf, Switzerland) to calculate DAHP production with the molar extinction coefficient at 549 nm (ε = 549 nm) of 4.5 × 10^4/M/cm. Reaction mixtures with boiled enzyme or without any substrates were run in parallel and used as negative controls to estimate the background signal for recombinant enzymes or enzymatic fraction from plant tissues, respectively.
(§2) For determination of kinetic parameters, the data of enzymatic activities measured in the presence of various concentration of substrates were calculated with the Michaelis–Menten equation in Graphpad Prism 6 (GraphPad Software, San Diego, CA, USA).

[2] = tested on: AthDHS1 and AthDHS2 mixtures; experiment: DHS assay using mixtures of AthDHS1 and AthDHS2 recombinant enzymes; format: biochemical, Arabidopsis thaliana; settings: 1 mM effector; molar ratios 0, 0.25, 0.5, 0.75, 1
Method: Next, we thought that the presence of non-inhibited DHS isoforms (e.g. AthDHS1) may affect the AAA sensitivity of AthDHS2, given that AthDHSs are known to function as tetrameric or dimeric forms ([Suzich et al., 1985]; [Pinto et al., 1986]; [Webby et al., 2005]). To test this, the recombinant enzymes of AAA non-inhibited AthDHS1 and AAA-inhibited AthDHS2 were mixed with different ratios (0, 0.25, 0.5, 0.75, and 1) and DHS activity assays were conducted with different inhibitors. Based on the kinetic parameters and the regulatory behaviors of individual AthDHSs, the expected level of DHS activity was first calculated and plotted (dotted lines in Figure 5, D, see the “Materials and methods” section). […] Similar results were obtained for the AthDHS2 and AthDHS3 mixture (Figure 5, E).
Unless otherwise noted, DHS enzymatic activity was monitored as previously described ([Liu et al., 2008]), with several optimizations for high-throughput assays with eight-strip PCR tubes and a thermal cycler. The enzyme solution (7.7 µL) containing 50 mM HEPES (pH 7.4) was preincubated with an effector molecule(s) at room temperature for 10 min. For assays using recombinant protein and enzyme fraction isolated from plant leaves, 0.01–0.05 µg and approximately 50 µg of proteins were used, respectively. After adding 0.5 µL of 0.1 M DTT, the samples were further incubated at room temperature for 15 min. […] The enzyme reaction was started by adding 6.8 µL of the substrate solution, then incubated at 37°C for 20 min, and terminated by adding 30 µL of 0.6 M trichloroacetic acid. After brief centrifugation, 5 µL of 200 mM NaIO4 (sodium meta-periodate) in 9 N H3PO4 was added to oxidize the enzymatic product and incubate at 25°C for 20 min. […] The absorbance of the pink supernatant was read at 549 nm with the microplate reader (Infinite 200 PRO, TECAN, Männedorf, Switzerland) to calculate DAHP production with the molar extinction coefficient at 549 nm (ε = 549 nm) of 4.5 × 10^4/M/cm. […]

[3] = tested on: root growth of Arabidopsis Col-0 and dhs mutants; experiment: Chemical feeding experiment, root length of 10-day-old seedlings; format: in vivo, Arabidopsis thaliana; settings: for pIC50: Arabidopsis thaliana
Method: (§3) Chemical feeding experiments were carried out as described previously ([de Oliveira et al., 2019]) with some modifications. Seedlings were grown on agar plates containing 0.5 MS with 1% sucrose, 0.8% agar, and 2.5 mM MES at pH 5.7 in the growth chamber where we grew other plants in soil. AAAs and/or shikimate were added to autoclaved media after cooling down to temperatures below 55°C. Plants were grown on the same plate side by side to minimize environmental effects, and multiple plates were prepared to obtain replications. Root lengths of 10-day-old seedlings were quantified by ImageJ.

[4] = tested on: Arabidopsis Col-0 and dhs mutants; format: in vivo, Arabidopsis thaliana; settings: 300 µM, 14 days after germination
Method: as §3

[5] = tested on: shikimate accumulation in Col-0 and dhs mutants; experiment: Shikimate content with and without Tyr and/or glyphosate treatment; format: in vivo, Arabidopsis thaliana; settings: 300 µM, without glyphosate; all genotypes except dhs1
Method: Approximately 50–80 mg of fully expanded mature leaves were pooled from multiple plants at the same developmental stages and ground in 800 µL of extraction buffer (v/v 2:1 of methanol and chloroform with 2 µg/mL isovitexin [Millipore-Sigma], 100 µM norvaline [Thermo Fisher Scientific], and 1.25 µg/mL Tocol [Matreya LLC, State College, PA, USA] for internal standards for soluble metabolite analysis by LC–MS and GC–MS and tocopherol analysis by GC–MS, respectively), using 1600 MiniG Tissue Homogenizer (SPEX SamplePrep, Metuchen, USA) and 3-mm glass beads. After adding 600 µL of H2O and then 250 µL of chloroform, polar phase containing amino acids, and non‐polar phase containing tocopherols were separated by centrifugation, dried in new tubes. To detect Trp and AAA-derived metabolites, LC–MS analysis was carried out as previous described with some modification ([Alseekh et al., 2015]). The dried metabolites were resuspended in 70 µL of 80% LC–MS-grade methanol. Two microliters of the sample was injected onto a HSS T3 C18 reversed phase column (100 × 2.1 mm i.d., 1.8-μm particle size; Waters, Milford, CT, USA) and eluted using a 20-min gradient comprising 0.1% formic acid in LC–MS-grade water (solvent A) and 0.1% formic acid in LC–MS-grade acetonitrile (solvent B) at a flow rate of 0.4 mL/min and column temperature of 40°C. The binary linear gradient with following ratios of solvent B was used: 0–1 min, 1%; 1–13 min, 1%–35%; 13–14.5 min, 35%–70%; 14.5–15.5 min, 70%–99%, 15.5–17 min, 99%; 17–17.5 min, 99%–[…]; 17.5–20 min, 1%. The spectra were recorded using full scan mode of negative ion detection, covering a mass range from m/z 100 to 1,500. The resolution was set to 25,000 and the maximum scan time was set to 250 ms. The sheath gas was set to a value of 60, while the auxiliary gas was set to 35. The transfer capillary temperature was set to 150°C, while the heater temperature was adjusted to 300°C. The spray voltage was fixed at 3 kV, with a capillary voltage and a skimmer voltage of 25 and 15 V, respectively. Retention times, MS spectra, and associated peak intensities were extracted from the raw files using the Xcalibur software (Thermo Fisher Scientific). […] For anthocyanin quantification, the polar phase isolated for amino acid analysis was diluted 10 times with water in a new tube. […] Shikimate level was spectrometrically determined based on previous literatures ([Shaner et al., 2005]; [Sharkhuu et al., 2014]). […] After stopping the reaction by adding 100 µL of a termination solution containing 0.6 N sodium hydroxide and 0.22 M sodium sulfite, the absorption at 380 nm was immediately measured with the microplate reader. Shikimate concentration was determined by comparing with a dilution series of the shikimate standards.

[6] = tested on: DHS activities from pea (Pisum sativum) leaves; parameters: method as in Reinink and Borstlap, 1982; settings: 1 mM; ref Reinink and Borstlap, 1982; cited from earlier work
[7] = target: T2, AthDHS2 (Arabidopsis thaliana, UniProt Q00218); experiment: DHS enzymatic activity assay with recombinant AthDHS2; format: biochemical; settings: 1 mM effector
T2 construct: AthDHS2; residues 34–507; hexa-histidine; made in house; host or cells: E. coli Rosetta2 (DE3), pET28a
T2 sequence (Q00218 34-507): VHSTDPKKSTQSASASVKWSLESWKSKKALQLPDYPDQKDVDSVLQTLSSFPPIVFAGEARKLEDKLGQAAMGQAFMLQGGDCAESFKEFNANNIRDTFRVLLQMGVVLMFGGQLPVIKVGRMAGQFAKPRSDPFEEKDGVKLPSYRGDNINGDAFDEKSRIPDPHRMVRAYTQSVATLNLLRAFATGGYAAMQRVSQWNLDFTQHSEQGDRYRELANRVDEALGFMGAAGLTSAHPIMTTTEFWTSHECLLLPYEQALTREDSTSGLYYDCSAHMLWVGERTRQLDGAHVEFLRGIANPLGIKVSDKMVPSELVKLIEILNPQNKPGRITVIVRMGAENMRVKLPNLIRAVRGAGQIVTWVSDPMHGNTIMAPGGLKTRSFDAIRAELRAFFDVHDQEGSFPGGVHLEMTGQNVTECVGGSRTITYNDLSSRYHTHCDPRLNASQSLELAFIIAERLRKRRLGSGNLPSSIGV

[8] = target: AthDHS3 (Arabidopsis thaliana, UniProt Q9SK84); experiment: DHS enzymatic activity assay with recombinant AthDHS3; format: biochemical; settings: 1 mM effector
AthDHS3, sequence (Q9SK84 entry or part of it): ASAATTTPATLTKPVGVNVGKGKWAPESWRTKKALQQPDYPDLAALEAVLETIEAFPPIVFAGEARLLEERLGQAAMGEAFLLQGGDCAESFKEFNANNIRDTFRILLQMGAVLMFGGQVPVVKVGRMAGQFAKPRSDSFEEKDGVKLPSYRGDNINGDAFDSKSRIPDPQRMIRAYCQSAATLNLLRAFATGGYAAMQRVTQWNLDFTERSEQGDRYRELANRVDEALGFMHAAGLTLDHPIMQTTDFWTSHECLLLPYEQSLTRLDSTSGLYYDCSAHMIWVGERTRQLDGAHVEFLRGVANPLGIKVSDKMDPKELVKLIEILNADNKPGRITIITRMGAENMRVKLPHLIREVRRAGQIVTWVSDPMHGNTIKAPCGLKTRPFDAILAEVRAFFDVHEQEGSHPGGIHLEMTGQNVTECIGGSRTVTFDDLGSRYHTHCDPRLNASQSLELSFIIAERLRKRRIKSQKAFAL
Method: as §1, §2

[9] = tested on: DHS activity from mung bean (Vigna radiata) seedlings; parameters: method as in Rubin and Jensen, 1985; settings: ref Rubin and Jensen, 1985; cited from earlier work
[10] = tested on: DHS activity from spinach (Spinacia oleracea) leaves; parameters: method as in Doong et al., 1993; settings: ref Doong et al., 1993; cited from earlier work

T1 sequence (P29976 49-525): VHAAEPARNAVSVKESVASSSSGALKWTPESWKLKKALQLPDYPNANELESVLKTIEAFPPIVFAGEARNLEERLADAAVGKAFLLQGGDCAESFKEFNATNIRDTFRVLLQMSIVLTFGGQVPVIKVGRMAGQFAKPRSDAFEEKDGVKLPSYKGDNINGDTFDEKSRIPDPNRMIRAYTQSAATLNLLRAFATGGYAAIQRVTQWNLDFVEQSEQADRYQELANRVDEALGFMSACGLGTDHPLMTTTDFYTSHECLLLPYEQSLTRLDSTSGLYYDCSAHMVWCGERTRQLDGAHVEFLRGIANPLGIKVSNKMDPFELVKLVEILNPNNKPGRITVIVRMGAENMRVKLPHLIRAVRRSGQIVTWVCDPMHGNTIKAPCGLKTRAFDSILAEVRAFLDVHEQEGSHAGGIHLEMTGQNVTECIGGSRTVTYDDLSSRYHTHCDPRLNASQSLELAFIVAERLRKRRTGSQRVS

Row | inhibition of AthDHS2 activity [7] [%] | effect on AthDHS3 activity (in words) [8] | Compound | effect on AthDHS1 activity (in words) [1] | observed DHS activity of the enzyme mixtures versus theoretically calculated activity [2] | pIC50 ([3]; read-out: IC50 of root growth impairment) | pIC50 ([3]; read-out: concentration giving 50% growth inhibition) | concentration that specifically impaired root growth ([3]; dhs1 mutant) [µM] | effect of the added compound on Trp-mediated root growth inhibition of dhs3 ([3]; media with 300 µM Trp, AAAs added at 300 µM, shikimate at 500 µM) | phenotype of newly growing leaves ([4]; Col-0 and dhs3) | shoot phenotype ([4]; dhs1) | cup-shaped leaf phenotype ([4]; dhs2) | effect on shikimate level [5] | inhibition of DHS activity [6] [%] | concentration beyond which DHS activity is inhibited [9] [mM] | concentration beyond which DHS activity is inhibited [10] [mM]
1 | – | – | N[C@@H](Cc1ccc(O)cc1)C(=O)O [Tyr, L-tyrosine] | significantly activated | significantly higher than theoretically calculated activities | 4.10 | < 3.52 | ≥ 100 | not recovered | cup-like shape | very small and pale | did not appear | did not alter the shikimate level | 60 | – | –
2 | ~75 | did not significantly affect | N[C@@H](CC1(C(=O)O)C=CC(O)C=C1)C(=O)O (stereo partly shown) [arogenate] | did not significantly affect | – | – | – | – | – | – | – | – | – | – | > 0.4 | > 1

From PMC8136874, “The entry reaction of the plant shikimate pathway is subjected to highly complex metabolite-mediated regulation” (The Plant Cell, 2021)
